Results published in patent US20250302775A1, “METHODS FOR THE TREATMENT OF DEPRESSION” (Autobahn Therapeutics, Inc., priority 2022, published 2025).

Target: T1, recombinant human FAAH (rhFAAH) (Homo sapiens, UniProt O00519)
T1 construct: purchased Cayman Chemical (Ann Arbor, MI, USA)
T1 sequence (O00519 1-579): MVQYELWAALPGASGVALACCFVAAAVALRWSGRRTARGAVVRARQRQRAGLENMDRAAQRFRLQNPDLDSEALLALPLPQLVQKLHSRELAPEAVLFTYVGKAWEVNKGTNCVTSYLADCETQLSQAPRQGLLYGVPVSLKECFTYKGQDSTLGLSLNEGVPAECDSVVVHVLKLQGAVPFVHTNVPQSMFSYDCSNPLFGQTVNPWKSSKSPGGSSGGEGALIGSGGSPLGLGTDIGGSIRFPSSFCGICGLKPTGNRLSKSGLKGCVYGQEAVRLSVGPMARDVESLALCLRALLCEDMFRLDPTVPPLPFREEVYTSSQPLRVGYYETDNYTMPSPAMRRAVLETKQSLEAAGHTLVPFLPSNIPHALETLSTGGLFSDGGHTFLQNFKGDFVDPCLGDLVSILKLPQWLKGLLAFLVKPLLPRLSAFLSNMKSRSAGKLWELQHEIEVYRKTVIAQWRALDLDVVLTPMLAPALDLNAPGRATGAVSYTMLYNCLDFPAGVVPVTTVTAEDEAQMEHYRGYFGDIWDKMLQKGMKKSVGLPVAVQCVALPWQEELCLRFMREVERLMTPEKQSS
Experiment: FAAH substrate evaluation: formation of acid metabolite
Format: biochemical
Conditions: 0.5 ng/μL rhFAAH, 1 μM test compound, room temperature, pH 8.0, 0-60 minutes
Experimental: Purified recombinant human FAAH (rhFAAH) was purchased from Cayman Chemical (Ann Arbor, MI, USA). The total volume for each incubation was 400 μL containing a final 0.5 ng/μL rhFAAH, 1 μM test compound, 1.25% ethanol or 1 μM PF-3845 (FAAH inhibitor), and 0.1% bovine serum albumin in Tris-EDTA buffer at pH 8.0). The positive control was LL-341001. The incubation was conducted at the room temperature. At 0, 5, 15, 30 and 60 minutes, an aliquot of 30 μL reaction mixtures was removed and mixed with 300 μL acetonitrile containing 5 ng/mL terfenadine and 10 ng/mL tolbutamide as internal standards to quench the reaction. The resulting mixture was centrifuged at 4000 rpm, 4° C. for 15 minutes, and 100 μL supernatant was ready for LC-MS/MS analysis to measure the formation of acid metabolite.
Acquity Ultra Performance LC system from Waters was used for sample analysis. The chromatography was performed on a reverse phase Kinetex 2.6 μm C18 column, 2.1×30 mm, 100 Å. The mobile phase A comprised of 0.1% formic acid in water and mobile phase B comprised of 0.1% formic acid in acetonitrile with a 2-min run time at the flow rate of 0.8 mL/min for the acid metabolite from positive control or a 1.5 min run time at the flow rate of 0.9 mL/min for the acid metabolite of test compounds. The mass spectrometer (API-5500 and API Q Trap 4000 Applied Biosystems/MDS SCIEX Instruments, Framingham, MA, USA) was operated under ESI positive or negative ion MRM mode.
The formation of acid metabolite was monitored and quantified using one calibration point of 1 μM. The observed rate constant (ke) for the acid metabolite formation was calculated by plotting the metabolite concentration versus time of incubation with the slope being ke and is shown in Table 1.

## CC(C)c1cc(Cc2c(Cl)cc(OCC(=O)NCC(F)(F)F)cc2Cl)ccc1O [Compound 16]
  ke (observed rate constant for the acid metabolite formation): A (A = ke is more than or equal to 0.1)

## CNC(=O)COc1cc(Cl)c(Cc2ccc(O)c(C(C)C)c2F)c(Cl)c1F [Compound 39]
  ke (observed rate constant for the acid metabolite formation): B (B = ke is less than 0.1 and more than 0)

## CC(C)c1cc(Cc2c(Cl)cc(OCC(=O)N(C)C(C)C)cc2Cl)ccc1O [Compound 122]
  ke (observed rate constant for the acid metabolite formation): B (B = ke is less than 0.1 and more than 0)

## CC(C)c1cc(Cc2c(Cl)cc(OCC(=O)N(C)CCF)cc2Cl)ccc1O [Compound 125]
  ke (observed rate constant for the acid metabolite formation): B (B = ke is less than 0.1 and more than 0)

## CC(C)c1c(O)ccc(Cc2c(Cl)cc(OCC(N)=O)cc2Cl)c1F [Compound 35]
  ke (observed rate constant for the acid metabolite formation): A (A = ke is more than or equal to 0.1)

## CC(C)c1cc(Cc2c(Cl)cc(OCC(=O)N(C)N(C)C)cc2Cl)ccc1O [Compound 108]
  ke (observed rate constant for the acid metabolite formation): B (B = ke is less than 0.1 and more than 0)

## CCNC(=O)COc1cc(Cl)c(Cc2ccc(O)c(C(C)C)c2)c(Cl)c1 [Compound 2]
  ke (observed rate constant for the acid metabolite formation): A (A = ke is more than or equal to 0.1)

## CC(C)c1cc(Cc2c(Cl)cc(OCC(=O)NCCc3ccc(O)c(O)c3)cc2Cl)ccc1O [Compound 24]
  ke (observed rate constant for the acid metabolite formation): B (B = ke is less than 0.1 and more than 0)

## CON(C)C(=O)COc1cc(Cl)c(Cc2ccc(O)c(C(C)C)c2F)c(Cl)c1 [Compound 44]
  ke (observed rate constant for the acid metabolite formation): A (A = ke is more than or equal to 0.1)

## CC(C)c1c(O)ccc(Cc2c(Cl)cc(OCC(=O)NCCF)cc2Cl)c1F [Compound 36]
  ke (observed rate constant for the acid metabolite formation): A (A = ke is more than or equal to 0.1)

## CNN(C)C(=O)COc1cc(Cl)c(Cc2ccc(O)c(C(C)C)c2)c(Cl)c1 [Compound 124]
  ke (observed rate constant for the acid metabolite formation): B (B = ke is less than 0.1 and more than 0)

## CC(C)c1cc(Cc2c(Cl)cc(OCC(=O)N(C)CC(F)F)cc2Cl)ccc1O [Compound 132]
  ke (observed rate constant for the acid metabolite formation): B (B = ke is less than 0.1 and more than 0)

## CC(C)CNC(=O)COc1cc(Cl)c(Cc2ccc(O)c(C(C)C)c2)c(Cl)c1 [Compound 121]
  ke (observed rate constant for the acid metabolite formation): C (C = ke is 0)

## CC(C)c1cc(Cc2c(Cl)cc(OCC(=O)NCCS(C)(=O)=O)cc2Cl)ccc1O [Compound 30]
  ke (observed rate constant for the acid metabolite formation): A (A = ke is more than or equal to 0.1)

## CCCNC(=O)COc1cc(Cl)c(Cc2ccc(O)c(C(C)C)c2)c(Cl)c1 [Compound 3]
  ke (observed rate constant for the acid metabolite formation): A (A = ke is more than or equal to 0.1)

## CCNC(=O)COc1cc(Cl)c(Cc2ccc(O)c(C(C)C)c2F)c(Cl)c1 [Compound 33]
  ke (observed rate constant for the acid metabolite formation): A (A = ke is more than or equal to 0.1)

## CC(C)c1c(O)ccc(Cc2c(Cl)cc(OCC(=O)N(C)C)cc2Cl)c1F [Compound 32]
  ke (observed rate constant for the acid metabolite formation): A (A = ke is more than or equal to 0.1)

## CC#CCN(C)C(=O)COc1cc(Cl)c(Cc2ccc(O)c(C(C)C)c2)c(Cl)c1 [Compound 107]
  ke (observed rate constant for the acid metabolite formation): B (B = ke is less than 0.1 and more than 0)

## CC(C)c1cc(Cc2c(Cl)cc(OCC(=O)Nc3cccc(O)c3)cc2Cl)ccc1O [Compound 21]
  ke (observed rate constant for the acid metabolite formation): A (A = ke is more than or equal to 0.1)

## CC(C)c1cc(Cc2c(Cl)cc(OCC(=O)NC[C@H](C)O)cc2Cl)ccc1O [Compound 8]
  ke (observed rate constant for the acid metabolite formation): B (B = ke is less than 0.1 and more than 0)

## CC(C)c1cc(Cc2c(Cl)cc(OCC(=O)NC3CCC3)cc2Cl)ccc1O [Compound 127]
  ke (observed rate constant for the acid metabolite formation): B (B = ke is less than 0.1 and more than 0)

## CC(C)c1cc(Cc2c(Cl)cc(OCC(=O)N(C)C)cc2Cl)ccc1O [Compound 19]
  ke (observed rate constant for the acid metabolite formation): B (B = ke is less than 0.1 and more than 0)

## CC(C)c1cc(Cc2c(Cl)cc(OCC(=O)Nc3ccnnc3)cc2Cl)ccc1O [Compound 116]
  ke (observed rate constant for the acid metabolite formation): A (A = ke is more than or equal to 0.1)
